Consider 3 molecules from PubChem BioAssay (NCI).

Test systems include DU-145 prostate; T-47D breast; HOP-18 NSCLC; A498 renal.
Common to all, as to experiment: inhibition of tumour cell growth, NCI panel, 48 h

The structures appear in SMILES notation.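 Tested at 5 concentrations; 48 h exposure; 96-well plates; endpoints linearly interpolated, else capped at highest concentration. TGI: total growth inhibition.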

On to `NC(CCOCCP(=O)(O)CCOCCC(N)C(=O)O)C(=O)O` (centres undefined), for which the TGI with DU-145 prostate and in the assay on T-47D breast was > 100 µM in each case.

Take `O=C1OCc2cccc3c2-c2c1cccc2C(=O)OC3`: the TGI with HOP-18 NSCLC was > 100 µM.

For `O=C(O)C12CCCC(CCC1)C2`, in the assay on A498 renal, the TGI was > 100 µM.
